Test systems include SN12C renal; HT29 colon; OVCAR-8 ovarian; ACHN renal; NCI-H226 lung; CAKI-1 renal; A549 NSCLC; CCRF-CEM leukemia; K-562 leukemia; HCC-2998 colon; SR leukemia; SNB-19 CNS; SK-MEL-2 melanoma; NCI-H23 lung; SNB-75 CNS; A498 renal; HS 578T breast; MDA-MB-435; PC-3 prostate.
Assay in all cases: NCI-60 cell line screen, 48 h

We go through nine molecules from PubChem BioAssay (NCI).

Structures are written as SMILES.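 48-hour exposure; five concentrations; linearly interpolated endpoints. TGI marks complete inhibition of growth.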

With `O=C(O)C(CO)NC(=O)n1c2ccccc2c2ccccc21` (stereo not drawn), the TGI with SN12C renal, in the assay on HT29 colon, in the assay with OVCAR-8 ovarian, in the assay on ACHN renal, in the assay with NCI-H226 lung and in the assay on CAKI-1 renal was over 100 µM each time. Also, the TGI in the assay on A549 NSCLC, with CCRF-CEM leukemia, with K-562 leukemia, in the assay with HCC-2998 colon, in the assay with SR leukemia and with SNB-19 CNS was over 100 µM each time. The TGI with SK-MEL-2 melanoma and in the assay with NCI-H23 lung was over 100 µM throughout.

Take `CC(C)(C)C1CCC2(CC1)c1[nH]c3ccccc3c1C1(CCC(C(C)(C)C)CC1)c1[nH]c3ccccc3c12` (stereo not drawn): the TGI in the assay with SN12C renal, in the assay on HT29 colon, with OVCAR-8 ovarian, in the assay with ACHN renal, in the assay on NCI-H226 lung and in the assay on CAKI-1 renal was over 100 µM each time. Further, the TGI in the assay on A549 NSCLC, in the assay on CCRF-CEM leukemia, in the assay on SNB-75 CNS, in the assay with A498 renal, with K-562 leukemia and with HCC-2998 colon was over 100 µM each time. The TGI in the assay with SNB-19 CNS, with SK-MEL-2 melanoma and with NCI-H23 lung was over 100 µM in each case.

Regarding `C=CCOCCCCC(C(C)=O)C(=O)OC` (stereo not drawn), the TGI in the assay with SN12C renal, in the assay with HT29 colon, with OVCAR-8 ovarian, in the assay with ACHN renal, in the assay on NCI-H226 lung and in the assay with CAKI-1 renal was over 100 µM throughout. In addition, the TGI in the assay on A549 NSCLC, in the assay on CCRF-CEM leukemia, in the assay on SNB-75 CNS, in the assay on A498 renal, in the assay on K-562 leukemia and in the assay with HCC-2998 colon was over 100 µM throughout. The TGI with SR leukemia, in the assay on SNB-19 CNS, in the assay on SK-MEL-2 melanoma and with NCI-H23 lung was over 100 µM in each case.

`O=C1NC2OC(CO)C(O)C(O1)C2O` (stereo not drawn): the TGI in the assay on SN12C renal, in the assay with HT29 colon, with OVCAR-8 ovarian, in the assay with ACHN renal, with NCI-H226 lung and in the assay with CAKI-1 renal was over 100 µM each time. The TGI in the assay on CCRF-CEM leukemia, in the assay on SNB-75 CNS, in the assay on A498 renal, in the assay on K-562 leukemia, with SR leukemia and in the assay on SNB-19 CNS was over 100 µM throughout. The TGI in the assay with SK-MEL-2 melanoma and in the assay with NCI-H23 lung was over 100 µM in each case.

With `COC1(OC)CCCCC2c3cccc(OC(C)=O)c3C21OC(C)=O` (stereo not drawn), the TGI in the assay with SN12C renal, with HT29 colon, in the assay on OVCAR-8 ovarian, with ACHN renal, with NCI-H226 lung and in the assay on A549 NSCLC was over 100 µM throughout. Moreover, the TGI with CCRF-CEM leukemia, in the assay with SNB-75 CNS, in the assay with K-562 leukemia, in the assay with HCC-2998 colon, in the assay on SR leukemia and with SNB-19 CNS was over 100 µM each time. In addition, the TGI with SK-MEL-2 melanoma and in the assay with NCI-H23 lung was over 100 µM in each case.

In the case of `O=C(O)C(CS)N=c1c2ccccc2n(O)c2ccccc12` (stereo not drawn), the TGI in the assay with SN12C renal, in the assay with HT29 colon, in the assay on OVCAR-8 ovarian, with ACHN renal, with NCI-H226 lung and in the assay with CAKI-1 renal was over 100 µM throughout. Further, the TGI in the assay with A549 NSCLC, in the assay with CCRF-CEM leukemia, with SNB-75 CNS, in the assay with A498 renal, in the assay with K-562 leukemia and in the assay with HCC-2998 colon was over 100 µM in each case. The TGI with SNB-19 CNS, in the assay with SK-MEL-2 melanoma and in the assay on NCI-H23 lung was over 100 µM throughout.

As for `O=C(Cc1ccccc1)NN1C(=O)/C(=C\c2ccc([N+](=O)[O-])cc2)SC1=Nc1ccccc1`, the TGI in the assay on SN12C renal, in the assay with HT29 colon, with OVCAR-8 ovarian, in the assay with ACHN renal, in the assay with HS 578T breast and in the assay on NCI-H226 lung was over 100 µM in each case. For the same molecule, the TGI in the assay with A549 NSCLC was over 100 µM; in the assay on CCRF-CEM leukemia, over 100 µM; with SNB-75 CNS it was over 100 µM; in the assay with A498 renal, over 100 µM; in the assay on MDA-MB-435, over 100000 nM; with K-562 leukemia, over 100 µM. In addition, the TGI in the assay with HCC-2998 colon, in the assay with SNB-19 CNS, in the assay on SK-MEL-2 melanoma and in the assay on NCI-H23 lung was over 100 µM each time.

For the molecule `Nc1ccc2[nH]c(-c3cccc(Cl)c3)cc(=O)c2c1`, the TGI is over 100 µM in the assay with SN12C renal; over 100 µM with PC-3 prostate; 29.5 µM in the assay with HT29 colon; over 100 µM in the assay on OVCAR-8 ovarian; over 100 µM in the assay with ACHN renal; over 100 µM with HS 578T breast. Further, the TGI in the assay on A549 NSCLC is over 100 µM; with CCRF-CEM leukemia, over 100 µM; with SNB-75 CNS it was over 100 µM; in the assay on MDA-MB-435 it was 2390 nM; with HCC-2998 colon, 54.4 µM; in the assay with SNB-19 CNS it was over 100 µM. The molecule further displayed a TGI with NCI-H23 lung of over 100 µM.

On to `COC(=O)C1CC2(c3ccccc3)C(=O)c3ccccc3N2O1` (stereo not drawn), for which the TGI with SN12C renal, in the assay on HT29 colon, with OVCAR-8 ovarian, in the assay with ACHN renal, in the assay with NCI-H226 lung and in the assay with CAKI-1 renal was over 100 µM each time. Besides, the TGI with A549 NSCLC, in the assay on CCRF-CEM leukemia, with SNB-75 CNS, in the assay with A498 renal, with K-562 leukemia and in the assay on HCC-2998 colon was over 100 µM throughout. Besides, the TGI is 65.3 µM with SR leukemia, over 100 µM in the assay on SNB-19 CNS, over 100 µM in the assay on SK-MEL-2 melanoma and over 100 µM with NCI-H23 lung.
